Data set [1] is described as follows: Absorption spectroscopy to assess photosensitizer aggregation in water. The class given is physicochemical. Conditions: for Aggregation in water by absorption spectrum: construct at 87.8 µM, compared with EtNBS in acidified methanol. The source says: Spectra were acquired using a home-built spectrometer that made use of a white light source for absorption measurements and a 655 nm LED for EtNBS excitation. Transmitted or absorbed light was collected and fiber-delivered to a QE65000 spectrometer (Ocean Optics) for spectral acquisition.

For data set [2], the system named is OVCAR5 cells. In words: Uptake in monolayer cell cultures, confocal fluorescence microscopy. In kind it is cell-based. As for the experimental part:
(§1) All imaging experiments were carried out on an Olympus FV1000 confocal microscope with a stage-top incubator (Prior) to maintain humidity, 37 °C temperature, and 5% CO2 during imaging sessions. For each sample, imaging was restricted to 15 minutes from the time cells were removed from the incubator to avoid any artifacts related to cell death. Image acquisition parameters were chosen which captured signal from both samples/cell lines without any saturation of signal and were kept uniform between samples to allow for direct one-to-one comparison of signal. These parameters were also used to image cells treated with known concentrations of EtNBS, to allow for relative comparison of uptake against known references. For every imaging experiment and conditions, a minimum of three areas of interests were collected and analyzed.
(§2) Stably transfected OVCAR5 cells overexpressing the alpha5 integrin as well as wild-type OVCAR5 cells were plated as described above in glass-bottom 35 mm culture dishes (P35G-0.170-14-C, MatTek) at a density of 200,000 cells per dish 24 hours prior to the start of experiments. Cells were administered the photosensitizer at a concentration of 10 µM in warmed complete cell culture medium and incubated for 3 hours in a 37 °C incubator under 5% CO2. […]

Data set [3] has as its system monolayer OVCAR5 cells. Conditions: 5 µM concentration, no light; 'has been observed', no reference given; cited from earlier work. How it is done: To assess the ability of the construct to carry out PDT, monolayer OVCAR5 cells were incubated with the EtNBS construct and illuminated with 660 nm light (Fig. 7). […] This is true even though the construct is more efficient in the generation of reactive radical species. This difference in light dose between the free molecule and its targeted construct, however, is not entirely surprising; similar higher light doses have been found necessary in immunoconjugates based on the benzoporphyrin der ...

Data set [4] relates to monolayer OVCAR5 cells. The data set can be described thus: Photodynamic therapy and dark toxicity in monolayer cultures, MTT viability assay. For orientation: Formazan colour is commonly taken as a measure of viable cells.
Protocol: (§4) The MTT assay was used to evaluate cellular viability of PDT-treated monolayer cultures. […] The MTT reagent (Thiazolyl Blue Tetrazolium Bromide, Sigma) was administered to cells in warmed complete cell culture media at a concentration of 1 mg/mL. Growth medium was gently aspirated from wells so as not to remove weakly adhered cells and was replaced with MTT media solution (160 µL). Cells were then returned cells to the 37 °C incubator and kept under 5% CO2 for 60 minutes. After incubating cells, the MTT treatment solution was carefully and completely aspirated from wells, with DMSO then added (180 µL) to extract cellular Formazan. After incubating samples for 15 minutes at room temperature while periodically rocking plates to completely and uniformly dissolve Formazan crystals, Formazan-containing DMSO was aliquoted (50 µL volumes from each well in triplicate) into a 96-well plate alongside wells containing an equal volume of DMSO to be used for background subtraction. The absorbance of Formazan at 540 nm was then measured using a SpectraMax M5 (Molecular Devices) plate reader.
(§5) After averaging measured absorbance values, background-subtraction was carried out and the standard deviation of the experimental values was calculated. For each individual sample group or treatment condition, the background-subtracted average absorbance value was normalized to that of the untreated (“NT”) control group to obtain the normalized cellular viabilities. […] All measurements were performed in triplicate to ensure high quality data collection.
(§6) All steps involving the manipulation of photosensitizers were carried out under subdued lighting to the extent that it was possible to avoid artifacts from unintentional photodynamic effects. Wells within each dish were spaced far apart from each other to ensure minimal light administration cross-talk. All manipulations of media or other culture liquids were done manually, specifically avoiding the use of vacuum aspiration techniques to avoid the unintended removal of weakly adhered cells before, during or after therapy.
(§7) Sequential blocking of integrins with cRGD peptide was achieved by administering a 10-fold excess of cRGD peptide (50 µM) in warmed DPBS to cells and incubating for a duration of 3 hours at 37 °C in a 5% CO2 incubator. Blocking solution was removed and replaced with photosensitizer-containing treatment media without performing a washing step and cells were immediately returned to the incubator for the appropriate time.
(§8) Concentrated stock solutions of photosensitizers were diluted in and administered to cells in warmed complete cell culture media. […] Integrin-dependent PDT efficacy was evaluated using 10 µM photosensitizer doses. The comparison of PEG-dependent enhancement in PDT was evaluated using 5 µM photosensitizer doses. […]
A short description of data set [5]: Reactive oxygen species generation, singlet oxygen sensor green (SOSG) fluorogenic assay. As for the experimental part:
(§3) HPF (H36004) and SOSG (S36002) were purchased from Life Technologies and were used as directed by the manufacturer’s protocol. Working solutions were prepared at 10 µM in DPBS or 5 µM TRIS buffer (pH 7.5) for HPF and SOSG, respectively, using 10 µM concentrations of the appropriate photosensitizer. All sample irradiation was carried out using 660 nm-centered LED-generated light (M660L3, Thorlabs) at an irradiance of 100 mW/cm^2. Irradiation of 80 µL sample volumes was carried out in clear plastic 96-well plates, with the emission of the ROS probes measured with a plate reader (SpectraMax m5, Molecular Devices). Experiments were performed in triplicate and experimental values (N = 3) were averaged and background-subtraction was performed.

Data set [6] in a line: Reactive oxygen species generation, hydroxyphenyl fluorescein (HPF) fluorogenic assay. Conditions: 10 µM photosensitizer, 660 nm. How it is done: as §3
In data set [7] the test system is OVCAR5 cell line engineered to ectopically overexpress the α5 integrin. In words: Integrin-dependent uptake in monolayer culture, confocal fluorescence microscopy. The class given is cell-based. How it is done:
as §1, §2

The test system of data set [8] is monolayer OVCAR5 cells.
Protocol: as §4, §5, §6, §7, §8

Take `CCNc1cc2sc3cc(=[N+](CC)CC)ccc-3nc2c2ccccc12.[Cl-]` [EtNBS]: the “Aggregation in water by absorption spectrum (Supplementary Fig. 3)” value in data set [1] (5 µM concentration) is given as “displays a blue shift”. Besides, the “Aggregation in water by absorption spectrum” value in data set [1] is listed as “formation of aggregates distorts the spectrum”. In data set [2] (relative comparison), the “Photosensitizer uptake of free EtNBS relative to the construct” value was “up to two orders of magnitude greater uptake”. For the same molecule, the “Drop in viability due solely to dark toxicity” value in data set [3] is 70%.

For `N=C(N)NCCC[C@@H]1NC(=O)[C@H](CCCCN)NC(=O)[C@@H](Cc2ccccc2)NC(=O)[C@H](CC(=O)O)NC(=O)CNC1=O` [cRGD, cRGDfK, reference compound], in data set [4] (cRGD only, not exposed to light, MTT), the “Toxicity of cRGD administered solely to cells” value is “did not result in any measured toxicity”.

With “DOTA-Lys(ETNBS)-Lys(PEG5K)-β-Ala-Cys(DBCO-PEG4-cRGD) (head to tail) [EtNBS construct]”, in data set [1], the “Aggregation in water by absorption spectrum” value is recorded as “does not show aggregation”. Further, the “ROS generation measured by SOSG versus free EtNBS” value in data set [5] (10 µM photosensitizer, 660 nm, 100 mW/cm^2, all light doses tested (5–40 J/cm^2), triplicate) is reported as “greater than that of free EtNBS”. In addition, in data set [5] (equimolar 10 µM photosensitizer, 5 µM SOSG in TRIS buffer pH 7.5, 660 nm LED, 100 mW/cm^2, highest light dose (40 J/cm^2), mean of triplicate), the “Yield of singlet oxygen (SOSG) relative to free EtNBS” value is reported as ~100%. The “Enhancement of HPF fluorescence versus free EtNBS” value in data set [6] (10 µM HPF in DPBS, 100 mW/cm^2, dose of 50 J/cm^2, triplicate) is reported as “two-fold enhancement”. Also, in data set [6] (100 mW/cm^2, all light doses (5–100 J/cm^2), triplicate), the “Photodynamic activity measured by HPF versus free EtNBS” value is “considerably greater photodynamic activity”. For the same molecule, the “Uptake in alpha5 integrin overexpressing OVCAR5 versus OVCAR5” value in data set [7] (10 µM, 3 hours incubation, 37 °C, fluorescence excited at 635 nm, 670 nm emission) is listed as “significantly greater”. For the same molecule, in data set [7] (alpha5 integrin overexpressing OVCAR5 cells), the “Uptake of PEGylated versus unPEGylated construct in overexpressing cells” value is reported as “take up more”. Besides, the “Photosensitizer concentration within the cells relative to administered free EtNBS” value in data set [2] (EtNBS references at 250 nM and 500 nM) was “many times lower”. Further, in data set [8], the “Toxicity without light, small scale experiments” value was “equally harmless”. In addition, the “Reduction in viability after PDT” value in data set [4] (5 µM photosensitizer, 3 hour incubation, 660 nm at 100 mW/cm^2, 100 J/cm^2 light dose, MTT 24 hours post-treatment, triplicate) is given as 60%. In addition, the “PDT effect after pre-incubation with free cRGD” value in data set [4] (pre-treated with cRGD 50 µM (tenfold molar excess) 3 hours, then construct 5 µM, 100 J/cm^2 at 660 nm, MTT) is on record as “protected the cells against PDT”.

(Values after PMC5645319, “An Integrin-Targeted, Highly Diffusive Construct for Photodynamic Therapy” (Scientific Reports, 2017).)
